Data from patent US6608085B1, “4-quinolinemethanol derivatives as purine receptor antagonists (II)” (Vernalis Research Limited, priority 1998, dated 2003).
Where a name gives a salt, the structure may show the parent alone.

Molecular target: human adenosine A2A receptors (Homo sapiens, UniProt P29274)
Assay: Binding affinities at hA2A receptors, displacement of [3H]-CGS 21680
Settings: displacement of radioligand [3H]-CGS 21680, in vitro

human adenosine A2A receptors, sequence (P29274 whole entry): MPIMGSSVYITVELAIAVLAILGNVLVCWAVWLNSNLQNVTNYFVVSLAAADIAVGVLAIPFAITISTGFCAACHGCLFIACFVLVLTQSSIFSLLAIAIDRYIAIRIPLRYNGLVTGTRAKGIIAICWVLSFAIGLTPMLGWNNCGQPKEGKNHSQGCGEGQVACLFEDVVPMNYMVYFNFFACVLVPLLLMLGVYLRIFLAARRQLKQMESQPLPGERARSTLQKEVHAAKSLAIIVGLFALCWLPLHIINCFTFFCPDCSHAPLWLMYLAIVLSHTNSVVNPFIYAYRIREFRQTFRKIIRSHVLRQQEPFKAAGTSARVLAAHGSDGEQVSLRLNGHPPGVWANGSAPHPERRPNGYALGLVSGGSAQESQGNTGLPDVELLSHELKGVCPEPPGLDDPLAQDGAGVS

Ki | SMILES
1210 nM | CC(C)C[C@H](N)C(O)c1cc(C(F)(F)F)nc2c(C(F)(F)F)cccc12 (mixture of isomers) [Example 34, α-(-Amino-3-methylbutyl)-2,8-bis(trifluoromethyl)-4-quinolinemethanol]
1740 nM | CC(=O)N1CCCC[C@H]1[C@H](O)c1cc(C(F)(F)F)nc2c(C(F)(F)F)cccc12 [Example 5, (11R, 2′S)-α-(1-Acetyl-2-piperidinyl)-2,8-bis(trifluoromethyl)-4-quinolinemethanol]
45 nM | CN1CCCC[C@H]1[C@H](O)c1cc(C(F)(F)F)nc2c(C(F)(F)F)cccc12 [Example 7, (11R, 2′S)-α-(1-Methyl-2-piperidinyl)-2,8-bis(trifluoromethyl)-4-quinolinemethanol]
419 nM | CO[C@H](c1cc(C(F)(F)F)nc2c(C(F)(F)F)cccc12)[C@@H]1CCCCN1C [Example 8, (11R, 2′S)-4-(1-Methoxy-1-(1-methyl-2-piperidinyl)methyl)-2,8-bis(trifluoromethyl)quinoline]
182 nM | O[C@H](c1cc(C(F)(F)F)nc2c(C(F)(F)F)cccc12)[C@@H]1CCCCN1Cc1ccccc1 [Example 9, (11R, 2′S)-α-(1-Benzyl-2-piperidinyl)-2,8-bis(trifluoromethyl)-4-quinolinemethanol]
63 nM | FC(F)(F)c1cc([C@H]2OCN3CCCC[C@@H]23)c2cccc(C(F)(F)F)c2n1 [Example 11, (1R, 8aS)-1,5,6,7,8,8a-Hexahydro-1-(2,8-bis(trifluoromethyl)-4-quinolinyl)-3H-oxazolo[3,4-a]pyridine]
192 nM | FC(F)(F)c1cc([C@H]2OCN3CCCC[C@H]23)c2cccc(C(F)(F)F)c2n1 [Example 13, (1R, 8aR)-1,5,6,7,8,8a-Hexahydro-1-(2,8-bis(trifluoromethyl)-4-quinolinyl)-3H-oxazolo[3,4-a]pyridine]
1780 nM | O=C1CO[C@H](c2cc(C(F)(F)F)nc3c(C(F)(F)F)cccc23)[C@@H]2CCCCN12 [Example 14, (1R, 9aS)-1,3,4,6,7,8,9,9a-Octahydro-1-(2,8-bis(trifluoromethyl)-4-quinolinyl)-pyrido[2,1-c][1,4]oxazine-4-one]
1170 nM | FC(F)(F)c1cc([C@H]2OCCN3CCCC[C@@H]23)c2cccc(C(F)(F)F)c2n1 [Example 15, (1R, 9aS)-1,3,4,6,7,8,9,9a-Octahydrol-(2,8-bis(trifluoromethyl)-4-quinolinyl)-pyrido[2,1-c][1,4]oxazine]
1500 nM | CNCC(O)c1cc(C(F)(F)F)nc2c(C(F)(F)F)cccc12 (stereo not drawn) [Example 22, α-Methylaminomethyl-2,8-bis(trifluoromethyl)-4-quinolinemethanol]
2730 nM | OC(CNc1ccccc1)c1cc(C(F)(F)F)nc2c(C(F)(F)F)cccc12 (stereo not drawn) [Example 23, α-Phenylaminomethyl-2,8-bis(trifluoromethyl)-4-quinolinemethanol]
2450 nM | OC(CNCc1ccccc1)c1cc(C(F)(F)F)nc2c(C(F)(F)F)cccc12 (stereo not drawn) [Example 24, α-Benzylaminomethyl-2,8-bis(trifluoromethyl)-4-quinolinemethanol]
1270 nM | CC(C)CNCC(O)c1cc(C(F)(F)F)nc2c(C(F)(F)F)cccc12 (stereo not drawn) [Example 25, α-Isobutylaminomethyl-2,8-bis(trifluoromethyl)-4-quinolinemethanol]
2800 nM | OC(CNC1CCC1)c1cc(C(F)(F)F)nc2c(C(F)(F)F)cccc12 (stereo not drawn) [Example 26, α-Cyclobutylaminomethyl-2,8-bis(trifluoromethyl)-4-quinolinemethanol]
226 nM | CO[C@H](c1cc(C(F)(F)F)nc2c(C(F)(F)F)cccc12)[C@@H]1CCCCN1 [Example 32, (1′R, 2S)-2-(α-Methoxy-2,8-bis(trifluoromethyl)-4-quinolinemethyl)piperidine Hydrochloride]
906 nM | O[C@H](c1cc(C(F)(F)F)nc2c(C(F)(F)F)cccc12)[C@@H]1CCCCN1CCc1ccccc1 [Example 38, (11S, 2′R)-α-(1-Phenethyl-2-piperidinyl)-2,8-bis(trifluoromethyl)-4-quinolinemethanol]
609 nM | CC[C@H](C)[C@H](N)[C@@H](O)c1cc(C(F)(F)F)nc2c(C(F)(F)F)cccc12 [Example 40, (11S, 1′S, 2′S)-α-(1-Amino-2-methyl-1-butyl)-2,8-bis(trifluoromethyl)-4-quinolinemethanol Hydrochloride]
462 nM | O[C@H](c1cc(C(F)(F)F)nc2c(C(F)(F)F)cccc12)[C@@H]1CCCN1 [Example 42, (11R, 2′S)-α-(2-pyrrolidinyl)-2,8-bis(trifuoromethyl)-4-quinolinemethanol Hydrochloride]
2060 nM | O[C@@H](c1cc(C(F)(F)F)nc2c(C(F)(F)F)cccc12)[C@@H]1CCCN1 [Example 45, (11S, 2′S)-α-(2-Pyrrolidinyl)-2,8-bis(trifluoromethyl)-4-quinolinemethanol Hydrochloride]

SMILES | Ki
O[C@@H](c1cc(C(F)(F)F)nc2ccccc12)[C@H]1CCCCN1 (racemic) [Example 39, (11S*, 2′R*)-α-(2-Piperidinyl)-2-trifluoromethyl-4-quinolinemethanol (Racemic)] | 404 nM
COc1cc([C@@H](O)[C@@H]2CCCCN2)c2cccc(C)c2n1 (racemic) [Example 48, (11R*, 2′S*)-2-Methoxy-8-methyl-α-(2-piperidinyl)-4-quinolinemethanol (Racemic)] | 1100 nM
CC(C)(C)OC(=O)N1CCC[C@H]1[C@H](O)c1cc(C(F)(F)F)nc2c(C(F)(F)F)cccc12 [Example 43, (11R, 2′S)-α-(1-tert-Butoxycarbonyl-2-pyrrolidinyl)-2,8-bis(trifluoromethyl)-4-quinolinemethanol] | 2720 nM

Tested on: haloperidol-induced deficits in locomotor activity in mice
Assay: Haloperidol-induced hypolocomotion model
Assay type: in vivo
Settings: 10 mg/kg intraperitoneally, haloperidol 0.2 mg/kg
From the text: This approach is also considered a valid method for screening drugs with potential antiparkinsonian effects. Thus, the ability of novel adenosine antagonists to block haloperidol-induced deficits in locomotor activity in mice can be used to assess both in vivo and potential antiparkinsonian efficacy.
Female TO mice (25-30 g) obtained from TUCK, UK, are used for all experiments. Animals are housed in groups of 8 [cage size—40 (width)×40 (length)×20 (height)cm] under 12 hr light/dark cycle (lights on 08:00 hr), in a temperature (20±2° C.) and humidity (55±15%) controlled environment. Animals have free access to food and water, and are allowed at least 7 days to acclimatize after delivery before experimental use.
Liquid injectable haloperidol (1 ml Serenance ampoules from Baker Norton, Harlow, Essex, each containing haloperidol BP 5 mg, batch #P424) are diluted to a final concentration of 0.02 mg/ml using saline. Novel test compounds are typically prepared as aqueous suspensions in 8% Tween. All compounds are administered intraperitoneally in a volume of 10 ml/kg.
1.5 hours before testing, mice are administered 0.2 mg/kg haloperidol, a dose that reduces baseline locomotor activity by at least 50%. […] Horizontal locomotor activity is determined by placing the cages within a frame containing a 3×6 array of photocells linked to a computer, which tabulates beam breaks. […]

SMILES | reversal of haloperidol-induced hypolocomotion
O[C@@H](c1cc(C(F)(F)F)nc2ccccc12)[C@H]1CCCCN1 (relative stereo) [Example 39, (11S*, 2′R*)-α-(2-Piperidinyl)-2-trifluoromethyl-4-quinolinemethanol (Racemic)] | significantly reversed

Tested on: not given
Assay: not given
Settings: not given

melting point | SMILES
232 to 233 °C | COC(CNCc1ccccc1)c1cc(C(F)(F)F)nc2c(C(F)(F)F)cccc12 (stereo not drawn) (as salt: hydrochloride) [Example 30, N-Benzyl-β-methoxy-2,8-bis(trifuoromethyl)-4-quinolineethanamine Hydrochloride]
230 °C (dec.) | O[C@H](c1cc(C(F)(F)F)nc2c(C(F)(F)F)cccc12)[C@@H]1CCCN1 (as salt: hydrochloride) [Example 42, (11R, 2′S)-α-(2-pyrrolidinyl)-2,8-bis(trifuoromethyl)-4-quinolinemethanol Hydrochloride]
246 °C (dec.) | O[C@@H](c1cc(C(F)(F)F)nc2c(C(F)(F)F)cccc12)[C@@H]1CCCN1 (as salt: hydrochloride) [Example 45, (11S, 2′S)-α-(2-Pyrrolidinyl)-2,8-bis(trifluoromethyl)-4-quinolinemethanol Hydrochloride]
225 °C (dec.) | Cc1cccc2c([C@@H](O)[C@@H]3CCCCN3)cc(O)nc12 (relative stereo)
225 °C (dec.) | Nc1cc([C@@H](O)[C@@H]2CCCCN2)c2ccccc2n1 (relative stereo) (as salt: salt)
129 to 130 °C | OC(CN1CCOCC1)c1cc(C(F)(F)F)nc2c(C(F)(F)F)cccc12 (stereo not drawn) [Example 18, α-Morpholinomethyl-2,8-bis(trifluoromethyl)-4-quinolinemethanol]
129.5 °C | OC(CN1CCCCC1)c1cc(C(F)(F)F)nc2c(C(F)(F)F)cccc12 (stereo not drawn) [Example 20, α-Piperidinomethyl-2,8-bis(trifluoromethyl)-4-quinolinemethanol]
201 °C (dec.) | OC1(c2cc(C(F)(F)F)nc3c(C(F)(F)F)cccc23)CNC1 [Example 31, 3-(2,8-Bis(Trifluoromethyl)-4-quinolinyl)-3-azetidinol]

Tested on: Parkinsonian patients
Assay: not given
Settings: 15 Parkinsonian patients, up to 12 weeks, 150 mg/day; cited from earlier work

SMILES | mean objective disability scores
Cn1c(=O)c2[nH]cnc2n(C)c1=O [Theophylline, 1,3-dimethylxanthine] | significant improvements

Same assay, conditions: of 15 Parkinsonian patients, up to 12 weeks, 150 mg/day; cited from earlier work

SMILES | patients reporting moderate or marked subjective improvement
Cn1c(=O)c2[nH]cnc2n(C)c1=O [Theophylline, 1,3-dimethylxanthine] | 11

Same assay, conditions: slow release oral preparation 150 mg/day, after one week; cited from earlier work

SMILES | serum theophylline levels
Cn1c(=O)c2[nH]cnc2n(C)c1=O [Theophylline, 1,3-dimethylxanthine] | 4.44 mg/L

Tested on: cataleptic responses
Assay: not given
Settings: in vivo; cited from earlier work

SMILES | anticataleptic effects of a subthreshold dose of L-DOPA plus benserazide | catalepsy induced by haloperidol and reserpine
CCCn1c(=O)c2c(nc(/C=C/c3ccc(OC)c(OC)c3)n2C)n(CCC)c1=O [KF 17837, (E)-8-(3,4-dimethoxystyryl)-1,3-dipropyl-7-methylxanthine] | potentiated | reduced

Same assay, conditions: oral administration; cited from earlier work

SMILES | cataleptic responses induced by intracerebroventricular CGS 21680
CCCn1c(=O)c2c(nc(/C=C/c3ccc(OC)c(OC)c3)n2C)n(CCC)c1=O [KF 17837, (E)-8-(3,4-dimethoxystyryl)-1,3-dipropyl-7-methylxanthine] | significantly ameliorated
